Laboratory results reported in patent US4603142A, “Cholesterol lowering method of use” (Wisconsin Alumni Research Foundation, priority 1984, dated 1986).

Key:
[1] = Serum lipids in 3-week-old broiler male chickens fed supplemented corn diet; format: in vivo, chicken; conditions: for Concentration in Serum Chol-LDL, percentage of control / Concentration in Serum Total Cholesterol, percentage of control / Concentration in Serum Chol-LDL / Concentration in Serum HDL-Chol. / Concentration in Serum Total Cholesterol: fed 3 weeks
Description: These responses were attributed to the presence in the small grains of relatively high concentrations of beta-D-glucans and pentosans. A long-standing interest in lipid metabolism prompted us to examine certain lipogenic and cholesterolgenic enzymes in the tissues of these birds. Methods used for handling blood samples, preparing subcellular fractions of liver and assay procedures for beta-hydroxy-beta-methylglutaryl coenzyme A (HMG Co-A) reductase, fatty acid synthetase (FAS), plasma cholesterol and triglycerides and the statistical treatment of the data have been described [Qureshi AA et al. (1980): Regulation of lipid metabolism in chicken livers by dietary cereals, J Nutr 110:388-393].
For large scale preparation of these compounds, 10 grams of the petroleum ether soluble fraction of HPBF were dissolved in 10 ml petroleum ether and applied to a 90×3.5 cm silicic acid column (Bio-Silica, 100-200 mesh). The column was washed with 2,500 ml petroleum ether followed by stepwise elution with increasing amounts of ether in petroleum ether. Fraction 8 of the column corresponded to HPLC fraction 5. A concentration-dependent suppression of HMG Co-A reductase activity and enhancement of FAS activity was noted within this range. Serum total and LDL cholesterol levels also fell in a dose-dependent response. […] In a companion experiment, using the same control birds, the effect of cholesterol inhibitor I at 5 ppm is compared to the effect of the petroleum ether solubles of HPBF at 20% equivalent on weight gain, HMG Co-A reductase and FAS activities, serum cholesterol and serum triglyceride levels (Table 2). […] Serum triglyceride levels reflected the influence of the diet on FAS activity. […] Cholesterol inhibitor I was a more powerful suppressor of LDL cholesterol (Table 2).
^1 Feeding period was 3 weeks; Time of killing was 0800; Data
expressed as mean ± SD; N = 9 chickens per group; HMGCoA reductase =

Fatty Acid Synthetase = experiment: In vitro fatty acid synthetase activity in isolated hepatocytes of chicken; format: cell-based; conditions: incubation 15 minutes; for Fatty Acid Synthetase: means of two replicates
Description: These observed effects on lipogensis and cholesterogenesis could be attributed to the chemical constituents of HPBF, but clearly could not be attributed to the water insoluble plant fibers because they were not present in the latter feeding trials. Moreover, these effects were also obtained in vitro using isolated hepatocytes from chickens and rats. […] Proc. 42:1973 (Abstr.)]. Conditions for the in vitro evaluation of the solvent extracts have been described [Qureshi AA et al. (1983): Inhibition of cholesterol and fatty acid biosynthesis in liver enzymes and chicken hepatocytes by polar fractions of garlic, Lipids 18:343-348].
Cholesterol inhibitor I was re-chromatographed by HPLC and the UV absorption spectrum obtained. Maximum absorption occurred at 292 nm. This purified fraction was used for high resolution mass spectrometric analysis. Several scans were made using ionization temperatures from 90-180 degrees Centigrade to increase the possibility of detecting impurities. The high resolution mass spectrometric analysis and measurements of different peaks gave a molecular ion peak at m/e 424 and main peaks at m/e 385, 205 and 165 corresponding to C29 H44 O2 (molecular formula) C25 H36 O2, C13 H17 O2 and C10 H13 O2 moieties, respectively, which are characteristic fragmentation moieties for d-alpha-tocotrienol. Lemon grass oil is a rich source of d-alpha-tocotrienol. This product and cholesterol inhibitor I at 20 ppm were compared with the petroleum ether soluble fraction of HPBF (20% equivalent HPBF) in a group of older male White Leghorn chickens (Table 3). The results shown on Table 3 confirm those previously recorded for petroleum ether solubles of HPBF and cholestrol inhibitor I. In a final experiment, the effects of cholestrol inhibitor I and lemon grass oil on hepatocyte HMG Co-A reductase and FAS activities were tested. Both components tested in the concentration range 5-100 microgram/ml, produced a concentration-dependent suppression of HMG Co-A reductase and concentration-dependent enhancement of FAS activity (Table 4).
^1 Tenweek-old female chickens were fed standard cornsoy diet. They
were fasted for 48 hrs. and refed 72 hrs. prior to the preparation of
^2 Incubation period was 15 minutes. Values represent means of two
replicates within incubation set.
^4 nmoles of NADPH oxidized per minute per mg of cytosolic fraction.

[2] = 2.5 ppm in corn diet, mean ± SD, N = 9
[3] = 5.0 ppm in corn diet, mean ± SD, N = 9
[4] = 10.0 ppm in corn diet, mean ± SD, N = 9
[5] = 15.0 ppm in corn diet, mean ± SD, N = 9
[6] = 20.0 ppm in corn diet, mean ± SD, N = 9
[7] = corn diet + 5 ppm (Table 2), mean ± SD, N = 9

CC(C)=CCC/C(C)=C/CC/C(C)=C/CC[C@]1(C)CCc2c(C)c(O)c(C)c(C)c2O1 [Cholesterol inhibitor I, 2,5,7,8-tetramethyl-2 (4,8, 12-trimethyltrideca-3,7, 11-trienyl)chroman-6-ol]
Concentration in Serum Chol-LDL, percentage of control ([1]; 2.5 ppm in corn diet): 90 Percentage of respective contr
Concentration in Serum Total Cholesterol, percentage of control ([1]; 2.5 ppm in corn diet): 94 Percentage of respective contr
Concentration in Serum Chol-LDL [1, 2]: 73 ± 5 mg/100 ml
Concentration in Serum HDL-Chol. [1, 2]: 54 ± 6 mg/100 ml
Concentration in Serum Total Cholesterol [1, 2]: 152 ± 10 mg/100 ml
Level of cholesterol transported in the high-density lipoprotein fraction (HDL) ([1]; 2.5 to 20 ppm, Table 1): not influenced
Concentration in Serum Chol-LDL, percentage of control ([1]; 5.0 ppm in corn diet): 74 Percentage of respective contr
Concentration in Serum Total Cholesterol, percentage of control ([1]; 5.0 ppm in corn diet): 89 Percentage of respective contr
Concentration in Serum Chol-LDL [1, 3]: 60 ± 4 mg/100 ml
Concentration in Serum HDL-Chol. [1, 3]: 51 ± 4 mg/100 ml
Concentration in Serum Total Cholesterol [1, 3]: 144 ± 8 mg/100 ml
Concentration in Serum Chol-LDL, percentage of control ([1]; 10.0 ppm in corn diet): 67 Percentage of respective contr
Concentration in Serum Total Cholesterol, percentage of control ([1]; 10.0 ppm in corn diet): 78 Percentage of respective contr
Concentration in Serum Chol-LDL [1, 4]: 54 ± 4 mg/100 ml
Concentration in Serum HDL-Chol. [1, 4]: 52 ± 5 mg/100 ml
Concentration in Serum Total Cholesterol [1, 4]: 125 ± 7 mg/100 ml
Concentration in Serum Chol-LDL, percentage of control ([1]; 15.0 ppm in corn diet): 64 Percentage of respective contr
Concentration in Serum Total Cholesterol, percentage of control ([1]; 15.0 ppm in corn diet): 76 Percentage of respective contr
Concentration in Serum Chol-LDL [1, 5]: 52 ± 5 mg/100 ml
Concentration in Serum HDL-Chol. [1, 5]: 50 ± 6 mg/100 ml
Concentration in Serum Total Cholesterol [1, 5]: 122 ± 6 mg/100 ml
Concentration in Serum Chol-LDL, percentage of control ([1]; 20.0 ppm in corn diet): 47 Percentage of respective contr
Concentration in Serum Total Cholesterol, percentage of control ([1]; 20.0 ppm in corn diet): 65 Percentage of respective contr
Concentration in Serum Chol-LDL [1, 6]: 38 ± 5 mg/100 ml
Concentration in Serum HDL-Chol. [1, 6]: 48 ± 5 mg/100 ml
Concentration in Serum Total Cholesterol [1, 6]: 105 ± 8 mg/100 ml
Serum Cholesterol HDL-Chol. [1, 7]: 48 ± 5 mg/dL
Serum Cholesterol LDL-Chol. [1, 7]: 38 ± 5 mg/dL
Serum Cholesterol Total-Chol. [1, 7]: 105 ± 11 mg/dL
Serum Triglycerides [1, 7]: 174 ± 6 mg/dL
Fatty Acid Synthetase, percentage of control (Fatty Acid Synthetase; 5 μg/ml): 122 Percentage of respective contr
Fatty Acid Synthetase (Fatty Acid Synthetase; 5 μg/ml): 88 nmoles of NADPH oxidized per m
Fatty Acid Synthetase, percentage of control (Fatty Acid Synthetase; 10 μg/ml): 135 Percentage of respective contr
Fatty Acid Synthetase (Fatty Acid Synthetase; 10 μg/ml): 97 nmoles of NADPH oxidized per m
Fatty Acid Synthetase, percentage of control (Fatty Acid Synthetase; 15 μg/ml): 156 Percentage of respective contr
Fatty Acid Synthetase (Fatty Acid Synthetase; 15 μg/ml): 112 nmoles of NADPH oxidized per m
Fatty Acid Synthetase, percentage of control (Fatty Acid Synthetase; 20 μg/ml): 175 Percentage of respective contr
Fatty Acid Synthetase (Fatty Acid Synthetase; 20 μg/ml): 126 nmoles of NADPH oxidized per m
Fatty Acid Synthetase, percentage of control (Fatty Acid Synthetase; 25 μg/ml): 188 Percentage of respective contr
Fatty Acid Synthetase (Fatty Acid Synthetase; 25 μg/ml): 135 nmoles of NADPH oxidized per m
Fatty Acid Synthetase, percentage of control (Fatty Acid Synthetase; 50 μg/ml): 188 Percentage of respective contr
Fatty Acid Synthetase (Fatty Acid Synthetase; 50 μg/ml): 148 nmoles of NADPH oxidized per m
Fatty Acid Synthetase, percentage of control (Fatty Acid Synthetase; 100 μg/ml): 214 Percentage of respective contr
Fatty Acid Synthetase (Fatty Acid Synthetase; 100 μg/ml): 154 nmoles of NADPH oxidized per m
